According to the METLIN SMRT retention time set (Domingo-Almenara et al. 2019):

Test: gradient 5% acetonitrile 3 min, to 50% in 2 min, to 85% in 15 min, held 3 min, 100 µL/min
Conditions: column: Zorbax Extend-C18 2.1 x 50 mm; eluents: water / acetonitrile, 0.1% formic acid
Summary of the method: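 The system's dead and dwell volumes were 40 μL and 900 μL, with a Zorbax Extend-C18 column (2.1 × 50 mm, 1.8 μm) run at 100 μL/min in water and acetonitrile containing 0.1% formic acid each. Pure standards were analyzed in mixtures of ~100 molecules by HPLC–quadrupole time-of-flight mass spectrometry in positive and negative ionization mode. Retention time was assigned from computationally picked, manually inspected adduct peaks.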

Compound	RP-LC retention time [s]
CC1(C(=O)N2CC(F)(F)C[C@H]2c2nnc(-c3ccccc3)o2)CC1	834
Cn1cccc1C(CNC(=O)Nc1ccc(Cl)c(Cl)c1)N1CCOCC1 (stereo not given)	601
Cc1oncc1CN1CCN(C(=O)c2c(F)cccc2Cl)CC1	575
CC(C)Cn1c(=O)c(N2CCN(C(=O)Cc3cccs3)CC2)nc2ccncc21	592
O=C(NC1CCS(=O)(=O)C1)C1CCN(c2cnn(Cc3ccccc3)c(=O)c2)C1 (stereo not given)	662
CC(C)c1noc(-c2ccnc(-n3cnc(C(=O)NCC4CC4)c3)c2)n1	879
CN1C(=O)CC[C@]2(CNC(=O)COc3cccc(Cl)c3)CCC[C@@H]12	727
CCC(=O)NCC12CCCC=C1N(C)C(=O)CC2 (stereo not given)	648
O=C(CN1C(=O)CCCc2cc(S(=O)(=O)N3CCCC3)ccc21)Nc1ccc(Cl)cc1F	897
COc1nc2ccccc2nc1N1CCCC(C(=O)NC2CCCCC2C)C1 (stereo not given)	1090
CC1=C(c2ccc(C)c(C)c2)S(=O)(=O)N=C1N1CCCN(C(=O)CC(C)C)CC1	915
O=C([C@@H]1C[C@H](F)CN1C(=O)Nc1ccc(C(F)(F)F)cc1)N1CCc2ccccc2C1	857
COc1ccccc1-c1ccc(N2CCN(C(=O)NC3CCCCC3)CC2)nn1	601
COc1ccccc1C(=O)N1CCN(S(=O)(=O)c2cc3c4c(c2)CCC(=O)N4CCC3)CC1	771
COc1ccc(NC(=O)Cn2nc3n(c2=O)CCCC3)c(OC)c1	642
CC(=O)c1ccc(OCC(O)CN2CCN(Cc3ccc(Cl)cc3)CC2)cc1 (stereo not given)	574
NC(=O)C1CCN(S(=O)(=O)c2cc(-c3noc(C4CCC4)n3)cs2)CC1	777
COc1ccc(C(=O)NC2CCN(c3ccc(=O)n(C)n3)C2)c(OC)n1 (stereo not given)	742
CCN1C(=O)C2CC3(CCN(C(=O)CN4CCCC4=O)CC3)CN2C1=O (stereo not given)	600
CCC(=O)Nc1ccc2c(c1)CCC(=O)N2CCOC	618
Cc1nc(-c2ccncc2)nc2c1CCC(=O)N2CCCN(C)C	549

Compound	RP-LC retention time [s]
CCc1noc(-c2ccc(-n3ncc(C(=O)NC4CC4)c3C)nc2)n1	792
CCCCNC(=O)c1sc2ncn(CC(=O)N3CC(C)CC(C)C3)c(=O)c2c1C (stereo not given)	890
CCCNc1cc(N2CCC(CCC(=O)NCc3ccc(N4CCOCC4)cc3)CC2)ncn1	631
Cc1ccc(NC(=O)c2cnn3c2CCCC3)cc1	770
Cc1noc(-c2ccc(OC3CN(C(=O)NCC(C)C)C3)cc2)n1	781
COC(=O)C(C)n1nc2nc(Nc3cc(C)cc(C)c3)cc(C)n2c1=O (stereo not given)	1160
Cc1nc(CC(=O)NC(C)c2ccc(F)cc2)sc1C(=O)NC1CC1 (stereo not given)	683
O=C(CSc1nc2ccccc2nc1SCC(=O)N1CCCC1)N1CCCC1	743
c1nc2c(c(NCc3ccc4c(c3)OCO4)n1)CCC2	606
CCN(CC)C(=O)CN1C(=O)COc2ccc(C(=O)N3CCCCC3)cc21	695
O=C(Cn1ccc2sccc2c1=O)Nc1ccc(Br)cc1F	832
CC(=O)N1CCN(c2nc3c(s2)CC(C(=O)N2CCCCCC2)CC3)CC1 (stereo not given)	614
COc1cc(OC)cc(C(=O)N2CCC3(CC2)N=C(c2ccc(Cl)cc2)NO3)c1	893
CC(C)COC(=O)Nc1nc(CC(=O)Nc2ccccc2C(N)=O)cs1	703
Cc1c(CC(=O)N2CCC(C(N)=O)CC2)c(=O)oc2cc3occ(-c4ccc(F)cc4)c3cc12	768
COCCN1C(=O)[C@H]2CN(Cc3ccc(Cl)c(F)c3)C[C@H]2C1=O	638
CCN(CC)CCCNC(=O)c1c(-c2ccc(Br)s2)noc1C	652
NC(=O)c1nsc2c(=O)n(CC(=O)NC3CCCC3)cnc12	596
Cc1nnc(N2CCCC(C(=O)NCCCN3CCCCCC3)C2)c2nn(-c3ccccc3)c(C)c12 (stereo not given)	586
O=C(NC1CCCCCC1)C1CCN(C(=O)c2ncn3c2COC(c2ccccc2)C3)CC1 (stereo not given)	794
CSc1ccc(CCNC(=O)C2CCCN(c3ncnc4c3nc3n4CCCCC3)C2)cc1 (stereo not given)	820

Other lines, results leading:

RP-LC retention time [s]	Compound
817	Cc1ccc2c(c1)cc(S(=O)(=O)c1ccccc1)c(=O)n2CC(=O)N1CCCC1
688	O=C(Nc1ccc2c(c1)OCO2)C1COCC(=O)N1Cc1ccccc1 (stereo not given)
600	CCN1CCN(c2cc(C(=O)O)c3cc(NS(=O)(=O)c4cccc(F)c4)ccc3n2)CC1
690	COc1ccc(CC(=O)NCCc2cn(C)c3ncccc23)c(Cl)c1
894	CCOc1ccc(CNC(=O)Cn2ccc3ccc(N4CCOCC4)nc32)cc1
982	CS(=O)(=O)N1CCC(C(=O)Nc2cccc(F)c2)Oc2ccc(Cl)cc21 (stereo not given)
965	CCOc1ccc(-c2cn3ccn(-c4cc(C)cc(C)c4)c(=O)c3n2)cc1
728	CN(C)C(CNC(=O)c1cc(-c2ccc(Cl)cc2)on1)c1cccs1 (stereo not given)
776	O=C(Cn1ccc2sccc2c1=O)Nc1ccc(Cl)cc1
882	CN(CCc1noc(-c2ccc(F)cc2)n1)C(=O)Nc1ccccc1F
981	Cc1nc(-c2cn(C)c3ncccc23)sc1C(=O)NCc1ccc(C(F)(F)F)cc1
909	O=C(Cc1csc2nc(-c3cccc(Br)c3)cn12)NCc1ccc(F)cc1
628	Cc1ccc(S(=O)(=O)NC2CCN(c3ncnc4c3CCC4)C2)cc1 (stereo not given)
980	O=C(CN1C(=O)CC(c2cccs2)=Nc2ccccc21)Nc1ccccc1Cl
797	O=C(NCCc1csc(-c2cccs2)n1)C1CCN(C(=O)Cc2cccc(F)c2)CC1
1020	CCn1cc(-c2nc(CC(=O)Nc3ccc(F)c(Cl)c3)cs2)c2cccnc21
1010	O=S(=O)(Cc1ccc(-c2nc(-c3ccccc3)no2)o1)c1ccccc1
762	Cc1ccccc1C(=O)NCCCn1cccc1
652	Cc1nn(C)cc1C(C)NC(=O)C1CCN(c2cnn(Cc3ccccc3)c(=O)c2)CC1 (stereo not given)
893	COc1ccc2c(c1)C1CC(C)(NC(=O)C1S(=O)(=O)c1ccc(C)cc1)O2 (stereo not given)
843	CCSc1ccccc1C(=O)NCC1(c2ccccc2OC)CCOCC1
767	CCCC(NC(=O)CCc1c(-c2ccc(Cl)cc2)nc2ccccn12)c1cccs1 (stereo not given)
903	CCn1nc(C)cc1C(=O)Nc1nc(-c2cccs2)cs1
1290	CCCCCn1c(=O)c2ccccc2n(Cc2nc(-c3ccc(SC)cc3)no2)c1=O

RP-LC retention time [s]	Compound
735	Cc1nc2cc(N3CCCC(C(=O)NCc4cccc(F)c4)C3)cnc2nc1C (stereo not given)
885	Cc1nc(-c2noc(-c3ccccc3)n2)cn1CC(=O)Nc1ccc(Cl)cc1
1260	CCOc1nc2c(c(C)nn2-c2cccc(C)c2)c(C)c1CCC(=O)NCCc1c[nH]c2ccccc12
988	Cc1nc(C(=O)Nc2cccc(C(F)(F)F)c2)c(C)o1
971	COc1cc(OC)cc(C(=O)N2CCN(c3nc4ccccc4cc3-c3noc(C)n3)CC2)c1
831	CC(=O)c1cccc(NC(=O)Cn2cccc2-c2nnc(C3CCC3)o2)c1
898	CC(C)CNC(=O)NC(c1ccccc1)c1nnc(-c2ccccc2Cl)o1 (stereo not given)
1060	COc1ccc(C)cc1NC(=O)Cc1csc2nc(-c3cccc(Br)c3)cn12
938	COC(=O)COC(=O)c1cn(-c2cccc(F)c2)c(=O)c2ccccc12
1070	COC(=O)c1ccc(-c2nc3cnccn3c2Nc2ccc(C(C)C)cc2)cc1
964	Cn1cc(-c2nc(C(=O)NCc3cccc(Cl)c3)cs2)c2cccnc21
1020	O=C(c1cccs1)N1CCCC(c2ccnc(-c3ccccc3)n2)C1 (stereo not given)
666	Cc1ccn2c(NC(=O)CC(C)(C)C)c(-c3ccccc3)nc2c1
654	O=C(NCc1ccco1)C1CCCN(c2ccc(-c3ccccc3)nn2)C1 (stereo not given)
580	Cc1ccnc(Nc2nc(C)c3ccccc3n2)n1
876	CCOc1ccc(NS(=O)(=O)c2cc(C(=O)N3CCN(c4ccc(F)cc4)CC3)n[nH]2)cc1
978	Cc1ccc(-c2nc(C3CC(=O)N(c4ccc(Cl)cc4)C3)no2)cc1 (stereo not given)
747	O=c1c(NCc2ccccc2Cl)nc2ccncc2n1Cc1ccccc1
931	CCc1cccc(NC(=O)C2(Cc3ccccc3)CCCCC(=O)N2)c1 (stereo not given)
1200	CC(C)c1csc(-c2csc(S(=O)(=O)Nc3ccc(Br)cc3F)c2)n1
861	Cc1ccccc1CC(=O)N1CCCC(COc2cccc(C(=O)NC3CC3)c2)C1 (stereo not given)
1290	Cn1nc(-c2nnc(-c3ccc(F)cc3)o2)c2c1CCN(S(=O)(=O)c1ccc3c(c1)CCC3)C2
725	Cc1cccc(-c2ncccc2CNS(=O)(=O)c2ccccc2C)c1
783	C=CCc1cccc(/C=N/NC(=O)C[NH+]2CCN(Cc3ccccc3)CC2)c1[O-]
